One assay concerns M. tuberculosis biofilm. The experiment in a line: M. tuberculosis biofilm formation inhibition (crystal violet staining). It counts as cell-based, Mycobacterium tuberculosis. The protocol:
FIG. 1A-D. Anti-M. tuberculosis biofilm activity of 6-treAz (6-azido-6-deoxy-D-trehalose). The effects of various concentrations of 6-treAz treatment on M. tuberculosis biofilms were monitored by crystal violet (CV) staining assay (A and B). […] The effect of 6-treAz on TreS mediated maltose production. Y-axis is the amount of maltose produced (D).
Planktonic growth and biofilm assays. Evaluation of planktonic growth and biofilm formation inhibition for M. smegmatis was carried out as previously reported for other trehalose analogues (Carbohydr. Res. 2017, 450, 60-66). Evaluation of planktonic growth and biofilm formation inhibition for M. tuberculosis was carried out as previously reported for 6-TreAz (Nat. Commun., 2019, 2928-2928).

Another assay deals with M. smegmatis biofilm. The experiment in a line: M. smegmatis biofilm formation inhibition. In kind it is cell-based, Mycobacterium smegmatis.
Another assay has as its system M. tuberculosis. The experiment in a line: M. tuberculosis planktonic growth inhibition. It counts as cell-based, Mycobacterium tuberculosis.
In assay [1] the test system is H37Rv lab strain (M. tuberculosis). In kind it is cell-based, Mycobacterium tuberculosis. As to conditions: for IC95 2-treNH2 / IC95 4-treNH2 / IC95 6-treNH2: H37Rv; for IC95 2-treNH2: antibiotic in combination with 2-treNH2; for IC95 4-treNH2: antibiotic in combination with 4-treNH2; for IC95 6-treNH2: antibiotic in combination with 6-treNH2.

Converted amounts (≈) assume the structure as drawn. Like-named read-outs stand apart in the source and are kept apart here.

We go through seven compounds from US20250205260A1, “ADJUNCTIVE TREATMENT OF MYCOBACTERIAL DISEASES” (UNIVERSITY OF SOUTHERN CALIFORNIA, priority 2022, published 2025).

Regarding `N[C@@H]1[C@@H](O)[C@@H](O[C@H]2O[C@H](CO)[C@@H](O)[C@H](O)[C@H]2O)O[C@H](CO)[C@H]1O` [3-TreNH2, (2R,3R,4S,5S,6R)-2-(((2R,3R,4S,5S,6R)-4-amino-3,5-dihydroxy-6-(hydroxymethyl)tetrahydro-2H-pyran-2-yl)oxy)-6-(hydroxymethyl)tetrahydro-2H-pyran-3,4,5-triol], the “inhibition of M. tuberculosis biofilm formation” value with M. tuberculosis biofilm was “moderate inhibitor”.
As for `N[C@@H]1[C@H](O)[C@@H](O)[C@@H](O[C@H]2O[C@H](CO)[C@@H](O)[C@H](O)[C@H]2O)O[C@@H]1CO` [4-epi-TreNH2, (2R,3R,4S,5S,6R)-2-(((2R,3R,4S,5R,6S)-5-amino-3,4-dihydroxy-6-(hydroxymethyl)tetrahydro-2H-pyran-2-yl)oxy)-6-(hydroxymethyl)tetrahydro-2H-pyran-3,4,5-triol], in the assay on M. tuberculosis biofilm, the “inhibition of M. tuberculosis biofilm formation” value is “do not”. The “inhibition of M. smegmatis biofilm formation” value in the assay with M. smegmatis biofilm is reported as “no inhibitory effects”. In addition, the “inhibition of M. tuberculosis planktonic growth” value with M. tuberculosis is “no inhibitory effects”.
For `COc1nc2ccc(Br)cc2cc1[C@@H](c1ccccc1)[C@@](O)(CCN(C)C)c1cccc2ccccc12` [BDQ, bedaquiline], in assay [1], the “IC95 WT” value turned out to be 0.59 µg/mL (≈ 1.06 µM), the “IC95 2-treNH2” value stood at 0.78 µg/mL, the “IC95 4-treNH2” value came out at 0.39 µg/mL and the “IC95 6-treNH2” value came out at 0.57 µg/mL.
`[N-]=[N+]=N[C@@H]1[C@@H](O[C@H]2O[C@H](CO)[C@@H](O)[C@H](O)[C@H]2O)O[C@H](CO)[C@@H](O)[C@@H]1O` [2-epi-TreAz, (2R,3R,4S,5S,6R)-2-(((2R,3S,4R,5S,6R)-3-azido-4,5-dihydroxy-6-(hydroxymethyl)tetrahydro-2H-pyran-2-yl)oxy)-6-(hydroxymethyl)tetrahydro-2H-pyran-3,4,5-triol]: the figures for the “inhibition of M. tuberculosis biofilm formation” value with M. tuberculosis biofilm, in the assay on M. tuberculosis biofilm (at 1 mM) and with M. tuberculosis biofilm (listed as Epi-2-TreAz) were “can inhibit”, “completely blocks” and “completely inhibits”, respectively. Besides, in the assay on M. tuberculosis biofilm (biofilm inhibition, normal growth inhibition and antibiotic synergism assays, preliminary results), the “overall activity against M. tuberculosis” value is recorded as “most potent”. Further, the “inhibition of M. smegmatis biofilm formation” value with M. smegmatis biofilm is recorded as “selectively inhibits”; with M. smegmatis biofilm (at 1 mM), “selectively blocks”. Further, the entries for the “inhibition of M. tuberculosis planktonic growth” value with M. tuberculosis, in the assay on M. tuberculosis (at 1 mM) and in the assay with M. tuberculosis (listed as Epi-2-TreAz) were “can inhibit”, “completely blocks” and “completely inhibits”, respectively.
As for `CO[C@H]1/C=C/O[C@@]2(C)Oc3c(C)c(O)c4c(O)c(c(/C=N/N5CCN(C)CC5)c(O)c4c3C2=O)NC(=O)/C(C)=C\C=C\[C@H](C)[C@H](O)[C@@H](C)[C@@H](O)[C@@H](C)[C@H](OC(C)=O)[C@@H]1C` [RIF, rifampicin], in assay [1], the “IC95 WT” value was 0.18 µg/mL (≈ 0.219 µM), the “IC95 2-treNH2” value is 0.09 µg/mL, the “IC95 4-treNH2” value is 0.14 µg/mL and the “IC95 6-treNH2” value was 0.24 µg/mL.
As for `[N-]=[N+]=N[C@@H]1[C@H](O)[C@@H](O)[C@@H](O[C@H]2O[C@H](CO)[C@@H](O)[C@H](O)[C@H]2O)O[C@@H]1CO` [4-epi-TreAz, (2R,3R,4S,5S,6R)-2-(((2R,3R,4S,5R,6S)-5-azido-3,4-dihydroxy-6-(hydroxymethyl)tetrahydro-2H-pyran-2-yl)oxy)-6-(hydroxymethyl)tetrahydro-2H-pyran-3,4,5-triol], in the assay on M. tuberculosis biofilm, the “inhibition of M. tuberculosis biofilm formation” value was “do not”. Also, in the assay with M. smegmatis biofilm, the “inhibition of M. smegmatis biofilm formation” value is given as “no inhibitory effects”. Further, the “inhibition of M. tuberculosis planktonic growth” value in the assay with M. tuberculosis is given as “no inhibitory effects”.
In the case of `NNC(=O)c1ccncc1` [INH, isoniazid], in assay [1], the “IC95 WT” value came out at 0.28 µg/mL (≈ 2.04 µM), the “IC95 2-treNH2” value was found to be 0.21 µg/mL, the “IC95 4-treNH2” value came to 0.44 µg/mL and the “IC95 6-treNH2” value was 0.33 µg/mL.
